Experimental data from patent US20200237759A1, “DOSAGE REGIME AND METHOD FOR TREATING PULMONARY ARTERIAL HYPERTENSION” (Altavant Sciences GmbH, priority 2019, published 2020).
“Also recorded” adds a separate entry of the source.

Legend:
urine 5-HIAA/24 hours = assay: Part 2 MAD biomarker: urine 5-HIAA/24 hours change from Day 1; assay type: in vivo, human; settings: Days 7 and 14, all dose groups
Excerpt: (§1) Biomarkers were to be evaluated in Part 2 by measuring concentrations of serotonin (5-hydroxytryptamine [5-HT]) in serum and 5-hydroxyindoleacetic acid (5-HIAA) in plasma and urine. As well, the relationship of biomarkers to PK parameters was to be evaluated.
(§2) The biomarker analysis was to be based on the Biomarker Population (all subjects with evaluable biomarker measurements at baseline [Day 1 predose] and at least one after dosing [Day 7 or Day 14]).
(§3) Biomarker data were to be collected only in Part 2. The following biomarkers were to be analyzed: • Serum 5-HT • Plasma 5-HIAA • Urine 5-HIAA/24 hours (as measured, adjusted, estimated, and per gram creatinine)
Linear regression was to be performed using biomarker changes, absolute and relative (%), from Day 1, at predose on Day 7 or Day 14 versus AUC0-24, Cmax, and Cmin in corresponding study days. The slopes and corresponding 95% confidence intervals (CIs) were to be tabulated. […]
The biomarker portion of the study was conducted in Part 2 MAD using the Biomarker Population. The biomarkers evaluated were serum 5-HT and plasma 5-HIAA, as well as urine 5-HIAA/24 hours (as measured, adjusted, estimated, and per gram creatinine). Urinary 5-HIAA was determined by a validated (21 C.F.R. 58, GLP-compliant) method using liquid chromatographic separation and tandem mass spectrometry detection. […]
Biomarker data were analyzed for each KAR5585 dose separately, for all KAR5585 doses pooled, and for all placebo subjects pooled.
Urine 5 HIAA/24 hour was analyzed in 4 different manners: as measured in the 24-hour collection and (in order to correct for any collection errors) adjusted for creatinine excretion, estimated by the expected creatinine excretion for the subject (as defined in and expressed per gram creatinine. Results were similar for each of the 4 manners and are presented in this report for measured urine. Tables and figures for adjusted, estimated, and per-gram creatinine results are presented in Section 14. […]

[1] = system: plasma 5-HIAA (a PD marker of 5-HT synthesis); assay: Part 2 MAD biomarker: plasma 5-HIAA change from Day 1; assay type: in vivo, human
Excerpt: as §1, §2, §3
The a priori primary biomarker endpoint was to be the change in plasma 5-HIAA concentration on Day 14 from Day 1.
(§4) Linear regression was to be performed using biomarker changes, absolute and relative (%), from Day 1, at predose on Day 7 or Day 14 versus AUC0-24, Cmax, and Cmin in corresponding study days. The slopes and corresponding 95% confidence intervals (CIs) were to be tabulated.
(§5) Summary statistics (mean, standard deviation [SD], median, minimum [Min], and maximum [Max]) were to be tabulated for each biomarker, by Cohort, with absolute and relative (%) changes from Day 1 predose.
(§6) The values were to be tabulated with P values testing whether the difference of changes was equal to 0.
(§7) The biomarker portion of the study was conducted in Part 2 MAD using the Biomarker Population. The biomarkers evaluated were serum 5-HT and plasma 5-HIAA, as well as urine 5-HIAA/24 hours (as measured, adjusted, estimated, and per gram creatinine). Urinary 5-HIAA was determined by a validated (21 C.F.R. 58, GLP-compliant) method using liquid chromatographic separation and tandem mass spectrometry detection.
(§8) The Biomarker Population consisted of all subjects with evaluable baseline (Day 1 predose) and at least one postdose (Day 7 or Day 14) biomarker measurements.
(§9) Biomarker data were analyzed for each KAR5585 dose separately, for all KAR5585 doses pooled, and for all placebo subjects pooled. […]

[2] = Part 1 SAD urine pharmacokinetics (urinary excretion, renal clearance); assay type: in vivo, human
Method: Renal clearance of KAR5417 was calculated from the area under the plasma time concentration curve (AUC0-96) for KAR5417 and the amount of KAR5417 recovered in urine (Table 21).

[3] = Part 1 SAD plasma pharmacokinetics of KAR5585 and KAR5417 after a single oral dose of KAR5585 (fasting; fed food effect); settings: for AUC0-inf Geometric Mean / AUC0-tau Geometric Mean / Cmax Geometric Mean: 400 mg KAR5585 single oral dose
Method: Food effect was to be evaluated in Part 1, Period 2. Part 2 was permitted to begin before Part 1 was completed and, in each part, the data from each dose Cohort were to be reviewed for safety before the next dose Cohort was enrolled.
Part 1 had 6 Cohorts of 12 subjects each (for a total of 72 subjects) and Part 2 had 4 Cohorts of 12 subjects each (for a total of 48 subjects). In Part 1, the 12 subjects in Cohort 3 (400 mg) were studied twice, once under fasting conditions (Period 1) and once under fed conditions (Period 2) for food-effect assessment.
Pharmacokinetic data were to be summarized descriptively.

serum 5-HT = assay: Part 2 MAD biomarker: serum 5-HT change from Day 1; assay type: in vivo, human; settings: Day 7, 200 mg fed dose group
Excerpt: as §1, §2, §3, §4, §5, §6, §7, §8, §9

[4] = 100 mg to 700 mg single dose, 7-fold increase in dose
[5] = 700 mg to 2000 mg single dose, 2.86-fold increase in dose
[6] = KAR5585 100 mg single oral dose, fasted, Cohort 1
[7] = KAR5585 200 mg single oral dose, fasted, Cohort 2
[8] = KAR5585 400 mg single oral dose, fasted, Cohort 3A
[9] = KAR5585 400 mg single oral dose, fed, Cohort 3B
[10] = KAR5585 700 mg single oral dose, fasted, Cohort 4
[11] = KAR5585 1200 mg single oral dose, fasted, Cohort 5
[12] = KAR5585 2000 mg single oral dose, fasted, Cohort 6

## CCOC(=O)[C@@H]1CC2(CCN(c3cc(O[C@H](c4ccc(Cl)cc4-c4ccccc4)C(F)(F)F)nc(N)n3)CC2)CN1 [KAR5585, (S)-ethyl 8-(2-amino-6-((R)-1-(5-chloro-[1,1′-biphenyl]-2-yl)-2,2,2-trifluoroethoxy)pyrimidin-4-yl)-2,8-diazaspiro[4.5]decane-3-carboxylate]
Urine 5-HIAA/24 hours
  absolute and percent changes from Day 1 in creatinine-normalized urine 5-HIAA versus placebo: statistically significant in favor of KAR5585
[1]; Day 7, any dose group
  mean percent difference of change from Day 1 in plasma 5-HIAA between KAR5585 and placebo: not significant
[1]; each dose group and all doses combined, Day 14
  mean difference of changes from Day 1 to Day 14 in plasma 5-HIAA compared to placebo: statistically significant in favor of KAR5585
[2]; single oral KAR5585, all dose levels
  amount excreted (Ae) in urine, of the administered dose: less than 0.004%
[2]; single oral KAR5585, almost all subjects
  quantifiability in urine samples: could not be quantified in urine samples; also recorded: not quantifiable in urine in almost all subjects
[3]; [4]
  increase in mean AUC0-24: 8.7 fold
  increase in mean AUC0-inf: 8.8 fold
[3]; [5]
  increase in AUC0-24: 1.86 fold
  increase in AUC0-inf: 1.78 fold
[3]; Cohort 3A (Fasting)
  AUC0-inf Geometric Mean: 288 ng·h/mL
  AUC0-tau Geometric Mean: 176 ng·h/mL
  Cmax Geometric Mean: 42 ng/mL
[3]; Cohort 3B (Fed)
  AUC0-inf Geometric Mean: 903 ng·h/mL
  AUC0-tau Geometric Mean: 854 ng·h/mL
  Cmax Geometric Mean: 165 ng/mL
[3]; [6]
  AUC0-12 (Mean): 48.1 ng·h/mL
  AUC0-24 (Geo. Mean): 47.5 ng·h/mL
  AUC0-∞ (Geo. Mean): 47.5 ng·h/mL
  Cmax/D Geo. Mean: 0.132 (ng/mL)/mg
  Cmax/D Mean: 0.139 (ng/mL)/mg
  V2/F Geo. Mean: 5190 L
  V2/F Mean: 5680 L
  t1 Geo. Mean: 1.71 h
  t1 Mean: 1.89 h
[3]; [7]
  AUC0-12 (Geo. Mean): 83.3 ng·h/mL
  AUC0-24 (Geo. Mean): 93.4 ng·h/mL
  AUC0-∞ (Geo. Mean): 95.3 ng·h/mL
  Cmax/D Geo. Mean: 0.0875 (ng/mL)/mg
  Cmax/D Mean: 0.0961 (ng/mL)/mg
  V2/F Geo. Mean: 9610 L
  V2/F Mean: 10300 L
  t1 Geo. Mean: 3.17 h
  t1 Mean: 3.63 h
[3]; [8]
  AUC0-24 (Geo. Mean): 283 ng·h/mL
  AUC0-∞ (Geo. Mean): 288 ng·h/mL
  Cmax/D Geo. Mean: 0.105 (ng/mL)/mg
  Cmax/D Mean: 0.132 (ng/mL)/mg
  V2/F Geo. Mean: 8100 L
  V2/F Mean: 8330 L
  t1 Geo. Mean: 4.04 h
  t1 Mean: 4.08 h
[3]; [9]
  AUC0-24 (Geo. Mean): 876 ng·h/mL
  AUC0-tau Geo. Mean: 854 ng·h/mL
  AUC0-∞ (Geo. Mean): 903 ng·h/mL
  Cmax (Geo. Mean): 165 ng/mL
  Cmax/D Geo. Mean: 0.413 (ng/mL)/mg
  Cmax/D Mean: 0.422 (ng/mL)/mg
  V2/F Geo. Mean: 2730 L
  V2/F Mean: 2780 L
  t1 Geo. Mean: 4.26 h
  t1 Mean: 4.45 h
[3]; [10]
  AUC0-12 (Mean): 392 ng·h/mL
  Cmax (Geo. Mean): 95.2 ng/mL
  Cmax/D Geo. Mean: 0.136 (ng/mL)/mg
  Cmax/D Mean: 0.142 (ng/mL)/mg
  V2/F Geo. Mean: 8390 L
  V2/F Mean: 9120 L
  t1 Geo. Mean: 3.42 h
  t1 Mean: 3.46 h
  tmax (Median): 1.75 h
[3]; [11]
  AUC0-12 (Geo. Mean): 356 ng·h/mL
  AUC0-12 (Mean): 402 ng·h/mL
  AUC0-24 (Geo. Mean): 400 ng·h/mL
  AUC0-tau Mean: 364 ng·h/mL
  AUC0-∞ (Geo. Mean): 406 ng·h/mL
  Cmax/D Geo. Mean: 0.0568 (ng/mL)/mg
  Cmax/D Mean: 0.0692 (ng/mL)/mg
  V2/F Geo. Mean: 14500 L
  V2/F Mean: 16900 L
  t1 Geo. Mean: 3.40 h
  t1 Mean: 3.58 h
[3]; [12]
  Cmax (Geo. Mean): 95.1 ng/mL
  Cmax (Mean): 104 ng/mL
  Cmax/D Geo. Mean: 0.0475 (ng/mL)/mg
  Cmax/D Mean: 0.0522 (ng/mL)/mg
  V2/F Geo. Mean: 20600 L
  V2/F Mean: 25100 L
  t1 Geo. Mean: 4.76 h
  t1 Mean: 4.84 h
  tmax (Median): 2.00 h
[3]; single 100 mg KAR5585, fasting
  time up to which concentrations remained above the LLOQ: up to 4 hours
[3]; single 200 mg KAR5585, fasting
  time up to which concentrations remained above the LLOQ: up to 12 hours
[3]; single 400 mg KAR5585, fasting
  time up to which concentrations remained above the LLOQ: up to 12 hours
[3]; single 700 mg KAR5585, fasting
  time up to which concentrations remained above the LLOQ: up to 12 hours
[3]; single 1200 mg KAR5585, fasting
  time up to which concentrations remained above the LLOQ: up to 12 hours
Serum 5-HT
  mean difference of percent changes from Day 1 in serum 5-HT compared to placebo: statistically significant
